Test results: PMC8588310, “Identification and Preliminary Structure-Activity Relationship Studies of 1,5-Dihydrobenzo[e][1,4]oxazepin-2(3H)-ones That Induce Differentiation of Acute Myeloid Leukemia Cells In Vitro” (Molecules, 2021)
In brackets after ≈: the same amount, converted by molar mass.

Legend:
[1] = Semi-thermodynamic aqueous solubility; format: physicochemical; settings: thermodynamic from solid
Procedure: (§1) Determination of semi-thermodynamic solubility, metabolic stability in S9 fraction, Caco-2 permeability and PPB were performed by Cyprotex Ltd. (www.cyprotex.com, accessed on 22 October 2021) using their standard assays and as described on their website.

[2] = test system: HL-60 cells; experiment: CD11b expression assay by flow cytometry in HL-60 cells; format: cell-based, human; settings: for Activity in the CD11b assay / EC50: HL-60 cells; for Activity in the CD11b assay: concentration-response; for EC50: Homo sapiens, HL-60, 96 h, 4-day (96 h) treatment, CD11b upregulation, read-out: EC50 [nM], %CD11b response in HL60 cells; for LipE (lipophilic efficiency): LipE = -LogEC50-cLogP, EC50 of CD11b assay in HL-60
Procedure: Cells were treated with 1000 structurally diverse small molecules selected from a commercial library. A single point testing concentration of 10 µM was used. After 4 days, cells were stained with a CD11b antibody and analysed using flow cytometry. Compounds upregulating CD11b expression greater than 10% in at least three of the cell lines were considered as potential hits. Hit confirmation was undertaken as follows: first, the hit was re-tested at 10 µM both with the CD11b antibody and an isotype control to account for nonspecific binding. Secondly, the effect of the hit on cell proliferation and viability was evaluated through staining with DAPI to evaluate the number of dead cells, and with acridine orange to detect total cell numbers. Thirdly, the induction of differentiation caused by the compounds was confirmed through morphology assessment with Giemsa staining. Finally, the molecule was resynthesised and fully characterised to confirm structural authenticity. This fresh sample was then retested in the CD11b assay to generate a concentration-response curve. The study of proliferation and morphology was performed on a panel of six cell lines: HL-60, THP-1, OCI-AML3, KG-1, Kasumi-1 and ME-1.
Thus, structure-activity relationship studies were initiated, where the potency of the new analogues was evaluated through concentration-response testing using the CD11b assay in HL-60 cells. Lipophilic efficiency (LipE), which also accounts for lipophilicity, was also used to compare the quality of the analogues. Even though multiple parameters can influence activity in a cell-based assay, LipE is a useful guide to compare analogues.
PE mouse-anti-human-CD11b/Mac-1 (ICRF44, Cat 555388) and PE-mouse-IgG1-κ-isotype control (MOPC-21, Cat 555749) were purchased from BD Bioscience. Cells were suspended in 100 μL growth media (RPMI + 10% FBS + 1% L-glutamine) at a density of 2 × 10^4 cells/well of a V-bottom 96 well plate (Corning, Cat 3894) and grown for 96 h in the presence of compound at the required concentration. After 96 h, the plate was centrifuged, media was removed, and cells were resuspended in 50 µL of blocking buffer (IMDM, no phenol red + 10% FBS) containing 2.5 μL of either CD11b or isotype control antibody and incubated on ice in the dark for 20 min. Cells were washed twice in 200 μL of staining buffer (IMDM, no phenol red + 1% FBS) before being resuspended in 200 μL of staining buffer containing 1 μg/mL of DAPI to help identify dead cells. Flow cytometry data were collected on an Attune NxT and analysed using the Attune NxT software (Life Technologies).

[3] = Metabolic stability in mouse S9 fraction; format: in vitro ADME; settings: ER = Clint/species flow rate (mice: 90 mL/min/kg)
Procedure: as §1
[22] Extraction ratio (ER) is calculated as the measured intrinsic clearance over the hepatic blood flow of each species (90 mL/min/kg for mice). It has the advantage over other parameters (half-life, clearance) that it is independent of the species used

[4] = Single dose PK study in male CD-1 mice; format: in vivo, mouse
Description: In order to undertake a preliminary assessment of the pharmacokinetic (PK) profile of this compound class, three compounds were deemed to have sufficient intrinsic potency, solubility and in vitro metabolic stability properties to progress into a single dose in vivo PK study. […] […] […] Nonetheless, the clearance of the three compounds was high to moderate, and at this dose the in vitro EC50 was not reached.
Male CD-1 mice were used for the PK studies, with three for each treatment. […] Blood concentration was measured by LC-MS/MS over 24 h.

[5] = aqueous (buffer or water not specified)
[6] = mouse, whole blood, single dose 3 mg/kg po, blood
[7] = aqueous (not further specified)

| Structure (SMILES) | solubility thermodynamic [1, 5] | EC50 [2] | ER in mS9 (extraction ratio) [3] | LipE (lipophilic efficiency) [2] | further results |
| --- | --- | --- | --- | --- | --- |
| CS(=O)(=O)Nc1cccc(-c2ccc3c(c2)NC(=O)COC3)c1 [Compound 6, N-(3-(2-Oxo-1,2,3,5-tetrahydrobenzo[e][1,4]oxazepin-8-yl)phenyl)methanesulfonamide] | > 200 µM | > 10000 nM | – | – | Activity in the CD11b assay [2]: completely inactive |
| CN1C(=O)COCc2ccc(-c3cccc(NS(C)(=O)=O)c3)cc21 [Compound 7, N-(3-(1-Methyl-2-oxo-1,2,3,5-tetrahydrobenzo[e][1,4]oxazepin-8-yl)phenyl)methanesulfonamide] | > 200 µM | > 30000 nM | 0.07 | – | Activity in the CD11b assay [2]: completely inactive |
| CCN1C(=O)COCc2ccc(-c3cccc(NS(C)(=O)=O)c3)cc21 [Compound 8, N-(3-(1-Ethyl-2-oxo-1,2,3,5-tetrahydrobenzo[e][1,4]oxazepin-8-yl)phenyl)methanesulfonamide] | > 200 µM | 6200 nM | 0.25 | 3.8 | – |
| CC(C)CN1C(=O)COCc2ccc(-c3cccc(NS(C)(=O)=O)c3)cc21 [Compound 10, N-(3-(1-Isobutyl-2-oxo-1,2,3,5-tetrahydrobenzo[e][1,4]oxazepin-8-yl)phenyl)methanesulfonamide] | > 200 µM | 740 nM | 0.51 | 4.0 | – |
| CS(=O)(=O)Nc1cccc(-c2ccc3c(c2)N(C2CCCC2)C(=O)COC3)c1 [Compound 12, N-(3-(1-Cyclopentyl-2-oxo-1,2,3,5-tetrahydrobenzo[e][1,4]oxazepin-8-yl)phenyl)methanesulfonamide] | 124 µM (≈ 49.7 µg/mL) | 650 nM | 0.83 | 4.0 | – |
| CS(=O)(=O)Nc1cccc(-c2ccc3c(c2)N(C2COC2)C(=O)COC3)c1 [Compound 13, N-(3-(1-(Oxetan-3-yl)-2-oxo-1,2,3,5-tetrahydrobenzo[e][1,4]oxazepin-8-yl)phenyl)methanesulfonamide] | 10 µM (≈ 3.88 µg/mL) | > 10000 nM | 0.08 | – | – |
| CS(=O)(=O)Nc1cccc(-c2ccc3c(c2)N(c2ccccc2)C(=O)COC3)c1 [Compound 14, N-(3-(2-Oxo-1-phenyl-1,2,3,5-tetrahydrobenzo[e][1,4]oxazepin-8-yl)phenyl)methanesulfonamide] | 14 µM (≈ 5.72 µg/mL) | 220 nM | – | 3.9 | bioavailability ([4]; mouse, whole blood, 3 mg/kg po vs 0.33 mg/kg iv): 15%; half-life ([4]; mouse, whole blood, single dose 3 mg/kg po and 0.33 mg/kg iv, blood, route of parameter not given): 4.1 h; Cmax [4, 6]: 44 ng/mL; Tmax [4, 6]: 1.2 h; Vd/F ([4]; mouse, whole blood, single dose 3 mg/kg po, blood, read-out: Vz/F): 100 L/kg; Clobs ([4]; single dose 0.33 mg/kg iv, blood): 43 mL/min/kg; Clobs/F ([4]; single dose 3 mg/kg po, blood): 286 mL/min/kg; Clearance ([4]; single dose iv 0.33 mg/kg and po 3 mg/kg): lowest clearance |
| CC(C)N1C(=O)COCc2ccc(-c3ccc(NS(C)(=O)=O)cc3)cc21 [Compound 26, N-(4-(1-Isopropyl-2-oxo-1,2,3,5-tetrahydrobenzo[e][1,4]oxazepin-8-yl)phenyl)methanesulfonamide] | – | > 30000 nM | – | – | – |
| CC(C)N1C(=O)COCc2ccc(-c3cccc(S(C)(=N)=O)c3)cc21 (stereo not shown) [Compound 27, 1-Isopropyl-8-(3-(S-methylsulfonimidoyl)phenyl)-1,5-dihydrobenzo[e][1,4]oxazepin-2(3H)-one] | – | > 30000 nM | – | – | Activity in the CD11b assay [2]: removed the activity |
| COC(=O)Nc1cccc(-c2ccc3c(c2)N(C(C)C)C(=O)COC3)c1 [Compound 28, Methyl (3-(1-isopropyl-2-oxo-1,2,3,5-tetrahydrobenzo[e][1,4]oxazepin-8-yl)phenyl)carbamate] | – | 500 nM | 0.31 | 3.7 | solubility thermodynamic [1, 7]: 88 µM (≈ 31.2 µg/mL); Activity in the CD11b assay [2]: equally active |
| CC(C)N1C(=O)COCc2ccc(-c3cccc(N)c3)cc21 [Compound 29, 8-(3-Aminophenyl)-1-isopropyl-1,5-dihydrobenzo[e][1,4]oxazepin-2(3H)-one] | – | 3300 nM | – | 3.5 | – |
| CC(C)N1C(=O)COCc2ccc(-c3cccc(N(C)C)c3)cc21 [Compound 30, 8-(3-(Dimethylamino)phenyl)-1-isopropyl-1,5-dihydrobenzo[e][1,4]oxazepin-2(3H)-one] | – | 12000 nM | – | 2.4 | – |
| COc1cccc(-c2ccc3c(c2)N(C(C)C)C(=O)COC3)c1 [Compound 31, 1-Isopropyl-8-(3-methoxyphenyl)-1,5-dihydrobenzo[e][1,4]oxazepin-2(3H)-one] | – | > 10000 nM | – | – | – |
| CC(C)N1C(=O)COCc2ccc(-c3cccc(C(=O)O)c3)cc21 [Compound 32, 3-(1-Isopropyl-2-oxo-1,2,3,5-tetrahydrobenzo[e][1,4]oxazepin-8-yl)benzoic acid] | – | > 30000 nM | – | – | – |
| CCCS(=O)(=O)Nc1cccc(-c2ccc3c(c2)N(C(C)C)C(=O)COC3)c1 [Compound 33, N-(3-(1-Isopropyl-2-oxo-1,2,3,5-tetrahydrobenzo[e][1,4]oxazepin-8-yl)phenyl)propane-1-sulfonamide] | – | 6800 nM | – | 2.5 | Decrease in potency compared to OXS007002 ([2]; CD11b EC50 in HL-60, vs OXS007002): 10 fold |
| CC(C)N1C(=O)COCc2ccc(-c3cccc(NS(=O)(=O)C(F)(F)F)c3)cc21 [Compound 34, 1,1,1-Trifluoro-N-(3-(1-isopropyl-2-oxo-1,2,3,5-tetrahydrobenzo[e][1,4]oxazepin-8-yl)phenyl)methanesulfonamide] | – | > 10000 nM | – | – | – |
| CC(C)N1C(=O)COCc2ccc(-c3ccc(F)c(NS(C)(=O)=O)c3)cc21 [Compound 35, N-(2-Fluoro-5-(1-isopropyl-2-oxo-1,2,3,5-tetrahydrobenzo[e][1,4]oxazepin-8-yl)phenyl)methanesulfonamide] | – | 1600 nM | 0.21 | 4.0 | solubility thermodynamic [1, 7]: > 200 µM |
| Cc1ccc(-c2ccc3c(c2)N(C(C)C)C(=O)COC3)cc1NS(C)(=O)=O [Compound 36, N-(5-(1-Isopropyl-2-oxo-1,2,3,5-tetrahydrobenzo[e][1,4]oxazepin-8-yl)-2-methylphenyl)methanesulfonamide] | – | 600 nM | 1 | 4.1 | solubility thermodynamic [1, 7]: > 200 µM |
| COc1cc(NS(C)(=O)=O)cc(-c2ccc3c(c2)N(C(C)C)C(=O)COC3)c1 [Compound 38, N-(3-(1-Isopropyl-2-oxo-1,2,3,5-tetrahydrobenzo[e][1,4]oxazepin-8-yl)-5-methoxyphenyl)methanesulfonamide] | – | > 30000 nM | – | – | – |
| CC(C)N1C(=O)COCc2ccc(-c3cncc(NS(C)(=O)=O)c3)cc21 [Compound 39, N-(5-(1-Isopropyl-2-oxo-1,2,3,5-tetrahydrobenzo[e][1,4]oxazepin-8-yl)pyridin-3-yl)methanesulfonamide] | – | > 30000 nM | – | – | Activity in the CD11b assay [2]: abolished activity |
| CC(C)N1C(=O)COCc2ccc(Oc3cccc(NS(C)(=O)=O)c3)cc21 [Compound 40, N-(3-((1-Isopropyl-2-oxo-1,2,3,5-tetrahydrobenzo[e][1,4]oxazepin-8-yl)oxy)phenyl)methanesulfonamide] | – | > 30000 nM | – | – | Activity in the CD11b assay [2]: abolished activity |
